# In article PMC7442133, “Reduced treatment frequencies with bumped kinase inhibitor 1369 are effective against porcine cystoisosporosis” (International Journal for Parasitology: Drugs and Drug …, 2020):
# Key:
# [1] = Fecal drug kinetics: BKI concentrations in pooled feces by LC-MS/MS; assay type: in vivo, piglets
# Method: Additionally, to determine exposure to BKI 1369 and its metabolites, BKI 1318 and BKI 1817, pooled fecal samples per group were collected before treatment (−24 h), 2, 24 and 48 h after treatment and at the end of the study (SD 29; experiment I). Approximately 1 g of feces was soaked overnight in 3 ml phosphate buffered saline (PBS, pH 7.4). The following day, 12 ml of acetonitrile containing 100 μM propanolol as an internal standard was added and the mixture was thoroughly vortexed and centrifuged at 1000×g for 30 min. Clear supernatant was then transferred to Eppendorf tubes and concentrated in a miVac® Duo Concentrator (SP Scientific, Pennsylvania, USA) at 35 °C. Control/blank samples spiked with known amounts of target analyte were processed in tandem to provide a standard curve. The concentrated samples were shipped to the University of Washington and were stored at −20 °C until analysis by liquid chromatography-tandem mass spectrometry (LC-MS/MS) to determine fecal pharmacokinetics. All LC-MS/MS analyses were carried out on a Waters Acquity UPLC coupled with a Xevo TQS Micro and analyzed using MassLynx software (Waters Corporation, Milford, MA, USA). Extraction and LC-MS/MS conditions are described in detail in the Supplementary File S1.
# Tissue and feces from vehicle control treated piglets were used as blanks or standards. Calibration curves for BKI 1369, BKI 1318, and BKI 1817 were prepared by adding 2 μL BKI in dimethylsulfoxide (DMSO) to 18 μL tissue or feces controls to generate nominal concentrations of 0.004, 0.008, 0.02, 0.04, 0.08, 0.2, 0.4, 0.8, 2, 5, 10, and 20 μM. Calibration curves were generated separately for each tissue type and feces.
# 5 μL of tissue homogenate curves and samples were added to tubes that contained 95 μL of 80:20 acetonitrile: water. As an internal standard, propranolol was added to each sample to a final concentration of 20 nM. Samples were dried to completion using a miVac Duo Concentrator (SP Scientific, Pennsylvania, USA) at 35 °C. Sample processing for feces was similar but utilized a slightly different process to concentrate the sample as explained in the methods. Dried Samples were sealed and shipped to the University of Washington for LC-MS/MS analysis.
# C. suis (strain Wien-I) = assay: Fecal score and diarrhea of experimentally infected suckling piglets; assay type: in vivo, Cystoisospora suis
# [2] = Group A (20 mg BKI 1369/kg BW; 0 dpi), SD 2, −24 h (before treatment)
# [3] = Group A (20 mg BKI 1369/kg BW; 0 dpi), SD 3, 2 h post first-dose
# [4] = Group A (20 mg BKI 1369/kg BW; 0 dpi), SD 4, 24 h post first-dose
# [5] = Group A (20 mg BKI 1369/kg BW; 0 dpi), SD 5, 48 h post first-dose
# [6] = Group A (20 mg BKI 1369/kg BW; 0 dpi), SD 29, 624 h post first-dose
# [7] = Group A: single treatment 20 mg BKI 1369/kg on SD 3, pooled feces
# [8] = Group A: single treatment 20 mg BKI 1369/kg on SD 3, pooled feces, post dose
# [9] = Group B (20 mg BKI 1369/kg BW; 2 dpi), SD 4, −24 h (before treatment)
# [10] = Group B (20 mg BKI 1369/kg BW; 2 dpi), SD 5, 2 h post first-dose
# [11] = Group B (20 mg BKI 1369/kg BW; 2 dpi), SD 6, 24 h post first-dose
# [12] = Group B (20 mg BKI 1369/kg BW; 2 dpi), SD 7, 48 h post first-dose
# [13] = Group B (20 mg BKI 1369/kg BW; 2 dpi), SD 29, 576 h post first-dose
# [14] = Group B: single treatment 20 mg BKI 1369/kg on SD 5, pooled feces
# [15] = Group B: single treatment 20 mg BKI 1369/kg on SD 5, pooled feces, post-dose
# [16] = Group C (20 mg BKI 1369/kg BW; 2 and 4 dpi), SD 4, −24 h (before treatment)
# [17] = Group C (20 mg BKI 1369/kg BW; 2 and 4 dpi), SD 5, 2 h post first-dose
# [18] = Group C (20 mg BKI 1369/kg BW; 2 and 4 dpi), SD 6, 24 h post first-dose
# [19] = Group C (20 mg BKI 1369/kg BW; 2 and 4 dpi), SD 7, 48/2 h post 2nd dose
# [20] = Group C (20 mg BKI 1369/kg BW; 2 and 4 dpi), SD 8, 72/24 h post 2nd dose
# [21] = Group C (20 mg BKI 1369/kg BW; 2 and 4 dpi), SD 9, 96/48 h post 2nd dose
# [22] = Group C (20 mg BKI 1369/kg BW; 2 and 4 dpi), SD 29, 576/528 h post 2nd dose
# [23] = Group C: 20 mg BKI 1369/kg on SD 5 and SD 7, pooled feces, post first-dose
# [24] = Exp I group A: 1 × 20 mg/kg BW oral, SD 3 (0 dpi)
# [25] = Exp I group B: 1 × 20 mg/kg BW oral, SD 5 (2 dpi)
# [26] = Exp I group C: 2 × 20 mg/kg BW oral, SD 5 & SD 7 (2 & 4 dpi)
# [27] = Exp II group W: 1 × 20 mg/kg BW oral, SD 5 (2 dpi)
# [28] = Exp II group X: 1 × 10 mg/kg BW oral, SD 5 (2 dpi)
# [29] = Exp II group Y: 1 × 5 mg/kg BW oral, SD 5 (2 dpi)
structure (smiles),measurement,setting,value
CCOc1ccc2cc(-c3nn(CC4CCNCC4)c4ncnc(N)c34)ccc2n1 [BKI 1318],Concentration in pooled fecal samples,[1]; [2],0 nM
same,Concentration in pooled fecal samples,[1]; [3],0 nM
same,Concentration in pooled fecal samples,[1]; [4],300 nM
same,Concentration in pooled fecal samples,[1]; [5],400 nM
same,Concentration in pooled fecal samples,[1]; [6],0 nM
same,Cmax,[1]; [7],400 nM
same,Fecal Tmax,[1]; [8],48 h
same,Concentration in pooled fecal samples,[1]; [9],0 nM
same,Concentration in pooled fecal samples,[1]; [10],0 nM
same,Concentration in pooled fecal samples,[1]; [11],0 nM
same,Concentration in pooled fecal samples,[1]; [12],700 nM
same,Concentration in pooled fecal samples,[1]; [13],0 nM
same,Cmax,[1]; [14],700 nM
same,Fecal Tmax,[1]; [15],48 h
same,Concentration in pooled fecal samples,[1]; [16],0 nM
same,Concentration in pooled fecal samples,[1]; [17],0 nM
same,Concentration in pooled fecal samples,[1]; [18],300 nM
same,Concentration in pooled fecal samples,[1]; [19],1900 nM
same,Concentration in pooled fecal samples,[1]; [20],3600 nM
same,Concentration in pooled fecal samples,[1]; [21],7000 nM
same,Concentration in pooled fecal samples,[1]; [22],300 nM
same,Cmax,"[1]; Group C: 20 mg BKI 1369/kg on SD 5 and SD 7, pooled feces",7000 nM
same,Fecal Tmax,[1]; [23],96 h
same,Excretion via the feces (in words),"[1]; after oral BKI 1369, piglets",relatively low excretion via the feces
CCOc1ccc2cc(-c3nn(CC4CCN(C)CC4)c4ncnc(N)c34)ccc2n1 [BKI 1369],% piglets with diarrhea at least once,C. suis (strain Wien-I); [24],60%
same,Number of diarrhea days ± SD,C. suis (strain Wien-I); [24],1.4 ± 1.71 days
same,% piglets with diarrhea at least once,C. suis (strain Wien-I); [25],18.18%
same,Number of diarrhea days ± SD,C. suis (strain Wien-I); [25],0.27 ± 0.65 days
same,% piglets with diarrhea at least once,C. suis (strain Wien-I); [26],27.27%
same,Number of diarrhea days ± SD,C. suis (strain Wien-I); [26],0.45 ± 0.93 days
same,Mean FS and diarrhea days compared to control piglets (in words),C. suis (strain Wien-I); Exp I: single dose 20 mg/kg BW at 2 dpi,significantly lower mean FS and fewer diarrhea days
same,Effect on diarrhea (in words),C. suis (strain Wien-I); Exp I: single dose of 20 mg/kg BW on the day of infection,failed to reduce occurrence of diarrhea
same,Mean FS and diarrhea days compared to control piglets (in words),C. suis (strain Wien-I); Exp I: two doses 20 mg/kg BW at 2 and 4 dpi,significantly lower mean FS and fewer diarrhea days
same,% piglets with diarrhea at least once,C. suis (strain Wien-I); [27],10%
same,Number of diarrhea days ± SD,C. suis (strain Wien-I); [27],0.2 ± 0.63 days
same,% piglets with diarrhea at least once,C. suis (strain Wien-I); [28],40%
same,Number of diarrhea days ± SD,C. suis (strain Wien-I); [28],0.5 ± 0.70 days
same,% piglets with diarrhea at least once,C. suis (strain Wien-I); [29],77.80%
same,Number of diarrhea days ± SD,C. suis (strain Wien-I); [29],2.6 ± 1.88 days
same,Effect on diarrhea (in words),C. suis (strain Wien-I); Exp II: 5 mg/kg BW at 2 dpi,completely failed to control diarrhea
same,Effect on diarrhea (in words),C. suis (strain Wien-I); Exp II: 10 mg/kg BW at 2 dpi,effectively suppressed diarrhea
same,Effect on diarrhea (in words),C. suis (strain Wien-I); Exp II: 20 mg/kg BW at 2 dpi,effectively suppressed diarrhea
same,Number of diarrhea days compared to control piglets (in words),C. suis (strain Wien-I); irrespective of time points and frequencies of treatment,reduced number of diarrhea days
same,Concentration in pooled fecal samples,[1]; [2],0 nM
same,Concentration in pooled fecal samples,[1]; [3],800 nM
same,Concentration in pooled fecal samples,[1]; [4],8100 nM
same,Concentration in pooled fecal samples,[1]; [5],5500 nM
same,Concentration in pooled fecal samples,[1]; [6],0 nM
same,Cmax,[1]; [7],8100 nM
same,Fecal Tmax,[1]; [8],24 h
same,Concentration in pooled fecal samples,[1]; [9],0 nM
same,Concentration in pooled fecal samples,[1]; [10],0 nM
same,Concentration in pooled fecal samples,[1]; [11],800 nM
same,Concentration in pooled fecal samples,[1]; [12],3000 nM
same,Concentration in pooled fecal samples,[1]; [13],0 nM
same,Cmax,[1]; [14],3000 nM
same,Fecal Tmax,[1]; [15],48 h
same,Concentration in pooled fecal samples,[1]; [16],0 nM
same,Concentration in pooled fecal samples,[1]; [17],0 nM
same,Concentration in pooled fecal samples,[1]; [18],4500 nM
same,Concentration in pooled fecal samples,[1]; [19],37000 nM
same,Concentration in pooled fecal samples,[1]; [20],19700 nM
same,Concentration in pooled fecal samples,[1]; [21],29200 nM
same,Concentration in pooled fecal samples,[1]; [22],0 nM
same,Fecal Tmax,[1]; [23],48 h
same,"Time of fecal peak, in general","[1]; all groups, metabolite levels continued to rise beyond 48 h",24 to 48 h
